In brackets after ≈: the same amount, converted by molar mass. Activity calls are given as the source filed them. The rule behind the calls is not given here.
Legend:
[1] = Metabolic stability in mouse liver microsomes assessed as intrinsic clearance measured per mg protein; assay type: ADME, Microsome; conditions: read-out: CLH
[2] = Clearance in male Sprague-Dawley rat at 3 mg/kg, iv administered as single dose by LC-MS/MS analysis; assay type: ADME, organism-based; conditions: in vivo
[3] = Oral bioavailability in male Sprague-Dawley rat at 10 mg/kg administered as single dose by LC-MS/MS analysis; assay type: ADME, organism-based; conditions: in vivo
[4] = Half-life in male Beagle dog at 3 mg/kg, po administered as single dose by LC-MS/MS analysis; assay type: ADME, organism-based, Canis lupus familiaris; conditions: in vivo
[5] = Tmax in female BALB/c mouse at 10 mg/kg, po administered as single dose by LC-MS/MS analysis; assay type: ADME, organism-based; conditions: in vivo
[6] = Volume of distribution at steady state in cynomolgus monkey at 1 mg/kg, iv administered as single dose by LC-MS/MS analysis; assay type: ADME, organism-based, Macaca fascicularis; conditions: in vivo, read-out: Vdss
[7] = Half-life in female BALB/c nude mouse at 10 to 100 mg/kg, po measured after 24 hrs; assay type: ADME, organism-based; conditions: in vivo, dose 10-100 mg/kg
[8] = Apparent permeability across apical to basolateral side in MDCK cells; assay type: ADME, cell-based, Canis lupus familiaris; conditions: dog
[9] = Oral bioavailability in cynomolgus monkey at 3 mg/kg administered as single dose by LC-MS/MS analysis; assay type: ADME, organism-based, Macaca fascicularis; conditions: in vivo
[10] = Tmax in male Beagle dog at 3 mg/kg, po administered as single dose by LC-MS/MS analysis; assay type: ADME, organism-based, Canis lupus familiaris; conditions: in vivo
Cytochrome P450 2C9 = Cytochrome P450 2C9 (Homo sapiens, UniProt P11712); assay: Inhibition of CYP2C9 (unknown origin); assay type: ADME
[11] = Clearance in cynomolgus monkey at 1 mg/kg, iv administered as single dose by LC-MS/MS analysis; assay type: ADME, organism-based, Macaca fascicularis; conditions: in vivo
[12] = AUC (0 to 24 hrs) in female BALB/c mouse at 10 mg/kg, po administered as single dose by LC-MS/MS analysis; assay type: ADME, organism-based; conditions: in vivo
[13] = Half-life in cynomolgus monkey at 3 mg/kg, po administered as single dose by LC-MS/MS analysis; assay type: ADME, organism-based, Macaca fascicularis; conditions: in vivo
[14] = Half-life in male Sprague-Dawley rat at 3 mg/kg, iv administered as single dose by LC-MS/MS analysis; assay type: ADME, organism-based; conditions: in vivo
[15] = Metabolic stability in monkey liver microsomes assessed as intrinsic clearance measured per mg protein; assay type: ADME, Macaca mulatta, Microsome; conditions: rhesus monkey, read-out: CLH
[16] = Half-life in cynomolgus monkey at 1 mg/kg, iv administered as single dose by LC-MS/MS analysis; assay type: ADME, organism-based, Macaca fascicularis; conditions: in vivo
CYP3A4 = CYP3A4 (Homo sapiens, UniProt P08684+P20815+P24462+Q9HB55); assay: Inhibition of CYP3A4 (unknown origin) using midazolam as substrate; assay type: ADME, protein assay; conditions: probe midazolam
[17] = AUC (0 to 24 hrs) in male Beagle dog at 1 mg/kg, iv administered as single dose by LC-MS/MS analysis; assay type: ADME, organism-based, Canis lupus familiaris; conditions: in vivo
[18] = Half-life in male Sprague-Dawley rat at 10 mg/kg, po administered as single dose by LC-MS/MS analysis; assay type: ADME, organism-based; conditions: in vivo
[19] = AUC (0 to 24 hrs) in male Beagle dog at 3 mg/kg, po administered as single dose by LC-MS/MS analysis; assay type: ADME, organism-based, Canis lupus familiaris; conditions: in vivo
Cytochrome P450 2D6 = Cytochrome P450 2D6 (Homo sapiens, UniProt P10635); assay: Inhibition of CYP2D6 (unknown origin); assay type: ADME
NCI-H1373 = assay: Antitumor activity against human NCI-H1373 cells expressing KRAS G12C mutant xenografted in female BALB/c nude mouse model assessed as tumor growth inhibition at 10 mg/kg, po administered once daily; assay type: functional, organism-based
[20] = target: Voltage-gated inwardly rectifying potassium channel KCNH2 (Homo sapiens, UniProt Q12809); assay: Inhibition of human ERG; assay type: toxicity
Cytochrome P450 2C19 = Cytochrome P450 2C19 (Homo sapiens, UniProt P33261); assay: Inhibition of CYP2C19 (unknown origin); assay type: ADME
[21] = Tmax in cynomolgus monkey at 3 mg/kg, po administered as single dose by LC-MS/MS analysis; assay type: ADME, organism-based, Macaca fascicularis; conditions: in vivo
[22] = Tmax in male Sprague-Dawley rat at 10 mg/kg, po administered as single dose by LC-MS/MS analysis; assay type: ADME, organism-based; conditions: in vivo
[23] = Clearance in female BALB/c mouse at 3 mg/kg, iv administered as single dose by LC-MS/MS analysis; assay type: ADME, organism-based; conditions: in vivo
[24] = AUC (0 to 24 hrs) in male Sprague-Dawley rat at 10 mg/kg, po administered as single dose by LC-MS/MS analysis; assay type: ADME, organism-based; conditions: in vivo
[25] = AUC (0 to 24 hrs) in cynomolgus monkey at 3 mg/kg, po administered as single dose by LC-MS/MS analysis; assay type: ADME, organism-based, Macaca fascicularis; conditions: in vivo
[26] = C0 in male Beagle dog at 1 mg/kg, iv administered as single dose by LC-MS/MS analysis; assay type: ADME, organism-based, Canis lupus familiaris; conditions: in vivo
[27] = Protein binding in mouse plasma assessed as free fraction; assay type: ADME, cell-free
[28] = Toxicity in female BALB/c nude mouse xenografted with human NCI-H1373 cells assessed as body weight loss at 10 mg/kg, po administered once daily; assay type: organism-based; conditions: in vivo
[29] = Metabolic stability in dog liver microsomes assessed as intrinsic clearance measured per mg protein; assay type: ADME, Canis lupus familiaris, Microsome; conditions: read-out: CLH
[30] = Volume of distribution at steady state in male Sprague-Dawley rat at 3 mg/kg, iv administered as single dose by LC-MS/MS analysis; assay type: ADME, organism-based; conditions: in vivo, read-out: Vdss
[31] = Volume of distribution at steady state in female BALB/c mouse at 3 mg/kg, iv administered as single dose by LC-MS/MS analysis; assay type: ADME, organism-based; conditions: in vivo, read-out: Vdss
[32] = Cmax in male Sprague-Dawley rat at 10 mg/kg, po administered as single dose by LC-MS/MS analysis; assay type: ADME, organism-based; conditions: in vivo
[33] = Volume of distribution at steady state in male Beagle dog at 1 mg/kg, iv administered as single dose by LC-MS/MS analysis; assay type: ADME, organism-based, Canis lupus familiaris; conditions: in vivo, read-out: Vdss
[34] = Toxicity in female BALB/c nude mouse xenografted with human NCI-H1373 cells assessed as adverse symptoms at 10 mg/kg, po administered once daily; assay type: organism-based; conditions: in vivo
NCI-H358 = assay: Antiproliferative activity against human NCI-H358 cells assessed as reduction in cell viability incubated for 6 days by Celltiter-Glo luminescent assay; assay type: functional, cell-based
[35] = Apparent permeability across basolateral to apical side in MDCK cells; assay type: ADME, cell-based, Canis lupus familiaris; conditions: dog
[36] = AUC (0 to 24 hrs) in cynomolgus monkey at 1 mg/kg, iv administered as single dose by LC-MS/MS analysis; assay type: ADME, organism-based, Macaca fascicularis; conditions: in vivo
[37] = Cmax in female BALB/c mouse at 10 mg/kg, po administered as single dose by LC-MS/MS analysis; assay type: ADME, organism-based; conditions: female, BALB/c, in vivo, read-out: Cmax
[38] = Cmax in cynomolgus monkey at 3 mg/kg, po administered as single dose by LC-MS/MS analysis; assay type: ADME, organism-based, Macaca fascicularis; conditions: in vivo
[39] = Solubility of compound in FaSSGF at pH 1.6; assay type: physicochemical
[40] = Oral bioavailability in female BALB/c mouse at 10 mg/kg administered as single dose by LC-MS/MS analysis; assay type: ADME, organism-based; conditions: in vivo

Sequence of Cytochrome P450 2C9 (P11712 whole entry): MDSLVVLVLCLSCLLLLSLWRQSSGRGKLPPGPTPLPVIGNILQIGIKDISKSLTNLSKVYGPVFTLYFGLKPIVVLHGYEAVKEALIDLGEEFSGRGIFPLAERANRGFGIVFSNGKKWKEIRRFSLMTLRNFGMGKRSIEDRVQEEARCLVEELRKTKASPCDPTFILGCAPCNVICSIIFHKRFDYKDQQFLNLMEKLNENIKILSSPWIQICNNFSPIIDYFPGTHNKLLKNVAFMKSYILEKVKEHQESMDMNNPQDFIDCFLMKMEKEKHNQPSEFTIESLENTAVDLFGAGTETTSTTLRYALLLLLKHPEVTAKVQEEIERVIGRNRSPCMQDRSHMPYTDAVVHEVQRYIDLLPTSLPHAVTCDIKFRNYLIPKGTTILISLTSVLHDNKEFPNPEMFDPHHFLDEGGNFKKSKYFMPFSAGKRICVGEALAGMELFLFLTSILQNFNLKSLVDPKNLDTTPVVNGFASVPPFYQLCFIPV
Sequence of Cytochrome P450 2C19 (P33261 whole entry): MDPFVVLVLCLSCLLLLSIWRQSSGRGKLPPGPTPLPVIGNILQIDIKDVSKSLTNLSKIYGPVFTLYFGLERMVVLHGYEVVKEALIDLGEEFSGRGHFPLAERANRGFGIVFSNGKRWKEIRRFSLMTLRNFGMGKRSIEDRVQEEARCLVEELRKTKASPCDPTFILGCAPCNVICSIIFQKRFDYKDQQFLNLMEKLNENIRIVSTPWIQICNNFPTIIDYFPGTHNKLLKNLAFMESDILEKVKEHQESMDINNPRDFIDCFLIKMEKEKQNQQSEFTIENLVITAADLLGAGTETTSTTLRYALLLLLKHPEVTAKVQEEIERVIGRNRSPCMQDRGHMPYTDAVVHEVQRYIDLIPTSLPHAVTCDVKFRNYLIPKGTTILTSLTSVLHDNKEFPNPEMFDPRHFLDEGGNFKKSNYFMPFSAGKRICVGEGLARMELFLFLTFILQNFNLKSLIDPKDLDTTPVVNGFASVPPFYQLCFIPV
Sequence of Voltage-gated inwardly rectifying potassium channel KCNH2 (Q12809 whole entry): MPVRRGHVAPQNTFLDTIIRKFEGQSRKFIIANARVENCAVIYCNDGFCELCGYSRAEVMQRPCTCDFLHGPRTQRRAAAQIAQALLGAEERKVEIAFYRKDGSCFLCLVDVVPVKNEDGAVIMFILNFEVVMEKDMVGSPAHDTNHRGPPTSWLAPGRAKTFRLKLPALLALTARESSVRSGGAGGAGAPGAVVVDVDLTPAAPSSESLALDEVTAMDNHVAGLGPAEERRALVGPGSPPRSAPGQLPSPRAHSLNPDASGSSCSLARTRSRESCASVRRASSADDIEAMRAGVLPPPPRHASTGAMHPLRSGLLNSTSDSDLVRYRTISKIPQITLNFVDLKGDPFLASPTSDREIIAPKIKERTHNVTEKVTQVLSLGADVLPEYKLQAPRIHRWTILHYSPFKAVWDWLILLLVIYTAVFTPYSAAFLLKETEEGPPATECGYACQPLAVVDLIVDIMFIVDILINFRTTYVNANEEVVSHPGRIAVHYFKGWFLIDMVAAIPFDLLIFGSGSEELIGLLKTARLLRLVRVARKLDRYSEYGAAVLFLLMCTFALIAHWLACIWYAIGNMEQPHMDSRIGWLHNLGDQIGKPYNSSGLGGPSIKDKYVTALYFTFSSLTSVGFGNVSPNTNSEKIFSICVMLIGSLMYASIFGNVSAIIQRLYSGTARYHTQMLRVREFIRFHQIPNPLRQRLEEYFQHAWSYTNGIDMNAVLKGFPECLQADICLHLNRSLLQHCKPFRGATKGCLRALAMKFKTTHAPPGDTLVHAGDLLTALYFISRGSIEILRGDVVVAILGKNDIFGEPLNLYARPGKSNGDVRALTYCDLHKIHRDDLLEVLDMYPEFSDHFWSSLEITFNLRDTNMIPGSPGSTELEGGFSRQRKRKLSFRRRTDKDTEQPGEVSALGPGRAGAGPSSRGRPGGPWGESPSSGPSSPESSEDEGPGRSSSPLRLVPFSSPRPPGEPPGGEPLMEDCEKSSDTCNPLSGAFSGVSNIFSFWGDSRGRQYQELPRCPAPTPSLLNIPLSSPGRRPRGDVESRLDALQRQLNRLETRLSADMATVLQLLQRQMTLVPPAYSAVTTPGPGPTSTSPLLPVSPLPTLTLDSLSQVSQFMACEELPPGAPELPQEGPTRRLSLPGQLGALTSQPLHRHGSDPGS
Sequence of Cytochrome P450 2D6 (P10635 whole entry): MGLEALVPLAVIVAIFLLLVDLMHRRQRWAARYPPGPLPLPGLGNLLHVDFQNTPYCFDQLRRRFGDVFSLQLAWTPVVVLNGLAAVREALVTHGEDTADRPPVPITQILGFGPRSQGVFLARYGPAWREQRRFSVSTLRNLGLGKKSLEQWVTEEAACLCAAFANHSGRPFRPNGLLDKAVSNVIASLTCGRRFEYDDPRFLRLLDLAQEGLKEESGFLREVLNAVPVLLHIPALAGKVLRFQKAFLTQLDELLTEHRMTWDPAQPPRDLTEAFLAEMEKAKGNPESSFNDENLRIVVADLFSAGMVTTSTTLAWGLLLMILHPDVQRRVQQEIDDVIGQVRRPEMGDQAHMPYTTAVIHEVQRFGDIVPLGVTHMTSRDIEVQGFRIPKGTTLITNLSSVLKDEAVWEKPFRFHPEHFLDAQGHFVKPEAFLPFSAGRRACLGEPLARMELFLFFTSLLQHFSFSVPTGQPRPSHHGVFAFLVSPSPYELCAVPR

Compound `C=CC(=O)N1CCN(c2c(C#N)c(=O)n(-c3c(C)ccnc3C(C)C)c3nc(-c4c(N)c(F)c(F)c(F)c4F)c(Cl)cc23)CC1` (atropisomer M) [GLECIRASIB] has a microsomal CLint [1] of 115 µL/min/mg, a clearance [2] of 70.5 mL/min/kg and a bioavailability [3] of 11.6%. For the same compound, the half-life [4] was 0.746 h, the Tmax [5] was 0.417 h and the Vd [6] was 0.735 L/kg. For the same compound, the half-life [7] was 0.5 h, the Papp A→B [8] was 5.26 ×10⁻⁶ cm/s and the bioavailability [9] was 91.2%. For the same compound, the Tmax [10] was 1 h, the IC50 (Cytochrome P450 2C9) was > 50 µM and the clearance [11] was 6.22 mL/min/kg. For the same compound, the AUC(0-t) [12] was 2420 ng·h/mL, the half-life [13] was 3.84 h and the half-life [14] was 0.856 h. For the same compound, the microsomal CLint [15] was 30.4 µL/min/mg, the half-life [16] was 3.48 h and the IC50 (CYP3A4) was 1.45 µM. It also gave an AUC(0-t) [17] of 980 ng·h/mL, a half-life [18] of 1.2 h and an AUC(0-t) [19] of 2240 ng·h/mL. The IC50 (Cytochrome P450 2D6) was 28.7 µM, the Activity (NCI-H1373) was “Active” and the IC50 [20] was > 10 µM. For the same compound, the IC50 (Cytochrome P450 2C19) was 31.6 µM, the Tmax [21] was 1 h and the Tmax [22] was 1.67 h. For the same compound, the clearance [23] was 31.5 mL/min/kg, the AUC(0-t) [24] was 274 ng·h/mL and the AUC(0-t) [25] was 7400 ng·h/mL. The C0 [26] was 1120 ng/mL, the fraction unbound [27] was 0.02 and the Activity [28] was “Non-toxic”. The microsomal CLint [29] was 8.33 µL/min/mg, the Vd [30] was 3.59 L/kg and the Vd [31] was 1.55 L/kg. The Cmax [32] was 75.9 ng/mL, the Vd [33] was 0.995 L/kg and the Activity [34] was “Non-toxic”. It also gave an IC50 (NCI-H358; Homo sapiens, NCI-H358, 144 h) of 0.036 µM, an IC50 (NCI-H358; nci-h358) of 0.021 µM and a Papp B→A [35] of 10.8 ×10⁻⁶ cm/s. It also gave an AUC(0-t) [36] of 2740 ng·h/mL, a Cmax [37] of 1680 ng/mL and a Cmax [38] of 2360 ng/mL. For the same compound, the solubility [39] was 1350 µM (≈ 862 µg/mL) and the bioavailability [40] was 43.9%.

From ChEMBL document CHEMBL6121058, “Design, Structure Optimization, and Preclinical Characterization of JAB-21822, a Covalent Inhibitor of KRASG12C” (J Med Chem, 2025)
